How the values were obtained:
Type in all cases: cell-based
[1] = tested on: p15 protein; assay: Evaluation of p15 induction activity (Western blotting); conditions: test substance 0.1 μM, 24 hrs, ACHN cells or HT-29 cells, compared to DMSO, n=2
Protocol: (§1) ACHN cells or HT-29 cells were cultured in a 6 well plate at 2.5×10^5 cells/1.8 mL/well for 24 hrs, then a test substance (0.1 μM) dissolved in DMSO was added. After 24 hrs, cells were detached using trypsin-EDTA (ethylene diamine tetraacetic acid) and solubilized with NuPAGE LDS sample buffer (Invitrogen). Using an RC DC protein assay kit (BIO-RAD), the protein concentration of the sample was quantitated, and a sample in an amount corresponding to 10 μg of BSA (bovine serum albumin) was analyzed by Western blotting using an anti-p15 antibody. The density of the band stained with the anti-p15 antibody was measured by a densitometer to quantify the amount of p15 protein. As a control, DMSO was used and the test was performed with n=2 and the average protein amount was determined.

[2] = tested on: p27 protein; assay: p27 protein induction test (Western blotting); conditions: test substance (0.1 1M), 24 hrs, ACHN cells or HT-29 cells, compared to DMSO, n=2
Protocol: as §1, with “hrs,” for “hrs, then”, “[…])” for “μM)”, “anti-p27” for “anti-p15”, “p27” for “p15”

[3] = tested on: colorectal cancer cell line HT-29 cells; assay: Growth inhibitory effect against cancer cell lines (3H-thymidine uptake), HT-29; conditions: Homo sapiens, HT-29, inhibition of 3H-thymidine uptake; test substance 18 hrs, then 3H-thymidine 6 hrs; triplicate
How it was run: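 Cells seeded at 1.0×10^4/well, grown 24 hrs, then exposed to compound in DMSO for 18 hrs before 6 hrs pulse with ^3H-thymidine (0.25 μCi/well). Harvested cell-incorporated radioactivity counted; IC50 is the concentration halving uptake versus DMSO control, triplicate.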

[4] = tested on: Renal cancer cell line ACHN cell; assay: Growth inhibitory effect against cancer cell lines (3H-thymidine uptake), ACHN; conditions: Homo sapiens, ACHN
Protocol: Renal cancer cell line ACHN cell or colorectal cancer cell line HT-29 cells were cultured in a 96 well plate at 1.0×10^4 cells/90 μL/well for 24 hrs, then a test substance dissolved in DMSO (dimethyl sulfoxide) was added. After 18 hrs, ^3H-thymidine (0.25 μCi/well) was added and the cells were cultured for 6 hrs. Using a cell harvester, the cells were recovered on a UniFilter-96 GF/B glass filter and the ^3H radioactivity uptaken by the cells was measured by TopCount (Packard). As a control, DMSO was used and the activity of the test substance was expressed in the concentration (IC50) necessary for inhibiting ^3H radioactivity uptaken by the cell to 50% of that of the control group. The measurements were made in triplicate.

SMILES	fold induction at 0.1 µM [1]	fold induction at 0.1 µM [2]	IC50 [3] [nM]	IC50 [4] [nM]
Cn1c(=O)cc(Nc2ccc(Br)cc2F)c2c(=O)n(C3CC3)c(=O)n(-c3cccc(NS(C)(=O)=O)c3)c21 [Example 1-1, N-{3-[5-(4-bromo-2-fluoro-phenylamino)-3-cyclopropyl-8-methyl-2,4,7-trioxo-3,4,7,8-tetrahydro-2H-pyrido[2,3-d]pyrimidin-1-yl]phenyl}-methanesulfonamide]	≥ 1.5	≥ 1.5	< 10	10 to 100
Cc1cc(N(C)C)ccc1Nc1cc(=O)n(C)c2c1c(=O)n(C1CC1)c(=O)n2-c1ccccc1 [Example 1-112]	≥ 1.5	≥ 1.5	10 to 100	100 to 1000
CN(C)c1ccc(Nc2cc(=O)n(C)c3c2c(=O)n(C2CC2)c(=O)n3-c2ccccc2F)cc1 [Example 1-114]	≥ 1.5	≥ 1.5	100 to 1000	100 to 1000
Cc1cc(N(C)C)ccc1Nc1cc(=O)n(C)c2c1c(=O)n(C1CC1)c(=O)n2-c1ccccc1F [Example 1-142]	≥ 1.5	≥ 1.5	100 to 1000	
Cn1c(=O)cc(Nc2ccc(Br)cc2F)c2c(=O)n(C3CC3)c(=O)n(-c3ccccc3)c21 [Example 1-152]	≥ 1.5	≥ 1.5	10 to 100	100 to 1000
COc1ccc(Nc2cc(=O)n(C)c3c2c(=O)n(C2CC2)c(=O)n3-c2ccccc2)c(F)c1 [Example 1-175]	≥ 1.5	≥ 1.5	100 to 1000	
CC(C)N1CCC(Nc2cc(=O)n(C)c3c2c(=O)n(C2CC2)c(=O)n3-c2ccccc2)CC1 [Example 1-182]		≥ 1.5		
Cn1c(=O)c2c(Nc3ccc(Br)cc3F)cc(=O)n(C)c2n(-c2ccccc2)c1=O [Example 1-185]	≥ 1.5	≥ 1.5	10 to 100	100 to 1000
COc1ccc(-n2c(=O)n(C3CC3)c(=O)c3c(Nc4ccc(Br)cc4F)cc(=O)n(C)c32)cc1 [Example 1-186]	≥ 1.5	≥ 1.5	10 to 100	
CN(C)CCOc1cccc(-n2c(=O)n(C3CC3)c(=O)c3c(Nc4ccc(Br)cc4F)cc(=O)n(C)c32)c1 [Example 1-218]	≥ 1.5	≥ 1.5	10 to 100	
Cn1c(=O)cc(Nc2ccc(Br)cc2F)c2c(=O)n(C3CC3)c(=O)n(-c3cccc(N4CCOCC4=O)c3)c21 [Example 1-219]	≥ 1.5	≥ 1.5	10 to 100	100 to 1000
Cn1c(=O)cc(Nc2ccc(I)cc2)c2c(=O)n(C3CC3)c(=O)n(-c3ccccc3)c21 [Example 1-221]	≥ 1.5	≥ 1.5	< 10	10 to 100
C#Cc1ccc(Nc2cc(=O)n(C)c3c2c(=O)n(C2CC2)c(=O)n3-c2ccccc2)cc1 [Example 1-222]	≥ 1.5	≥ 1.5	10 to 100	100 to 1000
CN(C)S(=O)(=O)c1cccc(-n2c(=O)n(C3CC3)c(=O)c3c(Nc4ccc(Br)cc4F)cc(=O)n(C)c32)c1 [Example 1-224]	≥ 1.5	≥ 1.5	< 10	100 to 1000
CN(C)S(=O)(=O)c1ccc(-n2c(=O)n(C3CC3)c(=O)c3c(Nc4ccc(Br)cc4F)cc(=O)n(C)c32)cc1 [Example 1-226]	≥ 1.5	≥ 1.5	10 to 100	100 to 1000
CN(c1cccc(-n2c(=O)n(C3CC3)c(=O)c3c(Nc4ccc(Br)cc4F)cc(=O)n(C)c32)c1)S(C)(=O)=O [Example 1-228]		≥ 1.5	10 to 100	100 to 1000
COCCN(C)c1cccc(-n2c(=O)n(C3CC3)c(=O)c3c(Nc4ccc(Br)cc4F)cc(=O)n(C)c32)c1 [Example 1-253]		≥ 1.5	10 to 100	100 to 1000
C#Cc1ccc(Nc2cc(=O)n(C)c3c2c(=O)n(C2CC2)c(=O)n3-c2cccc(S(C)(=O)=O)c2)c(F)c1 [Example 1-259]		≥ 1.5	< 10	100 to 1000

SMILES	fold induction at 0.1 µM [1]	fold induction at 0.1 µM [2]	IC50 [3] [nM]	IC50 [4] [nM]
C#Cc1ccc(Nc2cc(=O)n(C)c3c2c(=O)n(C2CC2)c(=O)n3-c2cccc(NS(C)(=O)=O)c2)c(F)c1 [Example 1-260]		≥ 1.5	< 10	< 10
CCS(=O)(=O)Nc1cccc(-n2c(=O)n(C3CC3)c(=O)c3c(Nc4ccc(Br)cc4F)cc(=O)n(C)c32)c1 [Example 1-262]		≥ 1.5	< 10	10 to 100
Cn1c(=O)cc(Nc2ccc(Br)cc2F)c2c(=O)n(C3CC3)c(=O)n(-c3cccc(NC(=O)CO)c3)c21 [Example 1-263]		≥ 1.5	< 10	100 to 1000
CCS(=O)(=O)Nc1cccc(-n2c(=O)n(C3CC3)c(=O)c3c(Nc4ccc(I)cc4F)cc(=O)n(C)c32)c1 [Example 1-274]		≥ 1.5	< 10	< 10
CCc1ccc(Nc2cc(=O)n(C)c3c2c(=O)n(C2CC2)c(=O)n3-c2cccc(NS(C)(=O)=O)c2)c(F)c1 [Example 1-275]		≥ 1.5	< 10	10 to 100
CCCC(=O)Nc1cccc(-n2c(=O)n(C3CC3)c(=O)c3c(Nc4ccc(Br)cc4F)cc(=O)n(C)c32)c1 [Example 1-279]		≥ 1.5	10 to 100	100 to 1000
CCCCC(=O)NCCC(=O)Nc1cccc(-n2c(=O)n(C3CC3)c(=O)c3c(Nc4ccc(Br)cc4F)cc(=O)n(C)c32)c1 [Example 1-299]		≥ 1.5	10 to 100	100 to 1000
Cn1c(=O)cc(Nc2ccc(I)cc2)c2c(=O)n(C3CC3)c(=O)n(-c3cccc(NS(C)(=O)=O)c3)c21 [Example 1-302]		≥ 1.5	< 10	10 to 100
Cn1c(=O)cc(Nc2ccc(Br)cc2F)c2c(=O)n(C3CC3)c(=O)n(-c3cccc(NCCN4CCOCC4)c3)c21 [Example 1-303]		≥ 1.5	10 to 100	100 to 1000
CCNC(=O)Nc1cccc(-n2c(=O)n(C3CC3)c(=O)c3c(Nc4ccc(Br)cc4F)cc(=O)n(C)c32)c1 [Example 1-307]		≥ 1.5	10 to 100	100 to 1000
CN(C)S(=O)(=O)Nc1cccc(-n2c(=O)n(C3CC3)c(=O)c3c(Nc4ccc(Br)cc4F)cc(=O)n(C)c32)c1 [Example 1-309]		≥ 1.5	< 10	10 to 100
C#Cc1ccc(Nc2cc(=O)n(C)c3c2c(=O)n(C2CC2)c(=O)n3-c2cccc(NC(C)=O)c2)c(F)c1 [Example 1-310]		≥ 1.5	< 10	10 to 100
CCCS(=O)(=O)Nc1cccc(-n2c(=O)n(C3CC3)c(=O)c3c(Nc4ccc(I)cc4F)cc(=O)n(C)c32)c1 [Example 1-311]		≥ 1.5	< 10	< 10
CN1CCN(S(=O)(=O)c2cccc(-n3c(=O)n(C4CC4)c(=O)c4c(Nc5ccc(Br)cc5F)cc(=O)n(C)c43)c2)CC1 [Example 1-315]		≥ 1.5	10 to 100	100 to 1000
Cn1c(=O)cc(Nc2ccc(Br)cc2F)c2c(=O)n(C3CC3)c(=O)n(-c3cccc(S(=O)(=O)N4CCOCC4)c3)c21 [Example 1-316]		≥ 1.5	10 to 100	100 to 1000
CCS(=O)(=O)Nc1cccc(-n2c(=O)n(C3CC3)c(=O)c3c(Nc4ccc(Br)cc4F)n(C)c(=O)c(C)c32)c1 [Example 3-5]		≥ 1.5	< 10	10 to 100
CC(=O)Nc1cc(-n2c(=O)n(C3CC3)c(=O)c3c(Nc4ccc(I)cc4F)n(C)c(=O)c(C)c32)ccc1F [Example 4-99]		≥ 1.5	< 10	100 to 1000
